Reference: ChEMBL document CHEMBL6071148, “Synthesis and biological evaluation of novel 3,6- amide and thioamide substituted- 2,3,4,9-tetrahydro-1H-carbazoles for anti-cancer activity” (Eur J Med Chem, 2024)
Calls of active or inactive are those of the source. No cut-off for these calls is given here.

Assays:
[1] = system: Mitochondrial membrane; experiment: Disruption of mitochondrial membrane integrity in human A549 cells assessed as presence of bloated mitochondria by TEM analysis; type: cell membranes
[2] = system: A549; experiment: Induction of DNA damage in human A549 cells assessed as gammaH2AX positive cells at IC50 incubated for 48 hrs by PI staining based flow cytometric analysis (reference value: 4.90 +/- 0.50%); type: functional
[3] = system: A549; experiment: Antitumor activity against human A549 cells xenografted in chicken embryo chorioallantoic membrane assessed as reduction in tumor size; type: functional, cell-based; conditions: dose 1.5-4.5 µM
[4] = system: MCF7; experiment: Induction of apoptosis in human MCF7 cells assessed as increase in apoptotic cells incubated for 48 hrs by Annexin-V and 7-AAD staining based flow cytometric analysis (reference value: 7.53 +/- 1.16%); type: functional
[5] = system: Mitochondrial membrane; experiment: Disruption of mitochondrial membrane integrity in human A549 cells assessed as change in mitochondrial shape by TEM analysis; type: cell membranes
[6] = system: Mitochondrial membrane; experiment: Induction of mitochondrial membrane depolarization in human MCF7 cells assessed as increase in mitochondrial fission by measuring appearance of circular mitochondria by confocal microscopic analysis; type: cell membranes
[7] = system: Mitochondrial membrane; experiment: Induction of mitochondrial membrane depolarization in human MCF7 cells assessed as increase in mitochondrial fission by measuring appearance of shortened mitochondria by confocal microscopic analysis; type: cell membranes
[8] = system: Mitochondrial membrane; experiment: Disruption of mitochondrial membrane integrity in human A549 cells assessed as disruption of normal mitochondrial distribution by TEM analysis; type: cell membranes
[9] = system: MCF7; experiment: Induction of cell cycle arrest in human MCF7 cells assessed as accumulation of cells at S phase at IC50 incubated for 24 hrs by PI staining based flow cytometric analysis relative to control; type: functional
[10] = system: A549; experiment: Induction of cell cycle arrest in human A549 cells assessed as accumulation of cells at S phase at IC50 incubated for 24 hrs by PI staining based flow cytometric analysis (reference value: 39.41 +/- 2.54%); type: functional
[11] = system: A549; experiment: Cytotoxicity against human A549 cells assessed as inhibition of cell proliferation incubated for 72 hrs by MTT assay; type: functional, cell-based; conditions: A549, 72 h
[12] = system: Mitochondrial membrane; experiment: Induction of mitochondrial membrane depolarization in human A549 cells assessed as increase in mitochondrial fission by measuring appearance of shortened mitochondria by confocal microscopic analysis; type: cell membranes
[13] = system: A549; experiment: Induction of apoptosis in human A549 cells assessed as apoptotic rate at IC50 incubated for 24 hrs by Annexin-V and 7-AAD staining based flow cytometric analysis (reference value: 4.56 +/- 0.81%); type: functional
[14] = system: Mitochondrial membrane; experiment: Disruption of mitochondrial membrane integrity in human A549 cells assessed as presence of large mitochondria by TEM analysis; type: cell membranes
[15] = system: MCF7; experiment: Induction of apoptosis in human MCF7 cells assessed as increase in apoptotic cells incubated for 24 hrs by Annexin-V and 7-AAD staining based flow cytometric analysis (reference value: 5.70 +/- 1.56%); type: functional
[16] = system: Mitochondrial membrane; experiment: Disruption of mitochondrial membrane integrity in human MCF7 cells assessed as presence of large mitochondria by TEM analysis; type: cell membranes
[17] = system: Mitochondrial membrane; experiment: Disruption of mitochondrial membrane integrity in human A549 cells assessed as mitochondrial swelling by TEM analysis; type: cell membranes
[18] = system: MCF7; experiment: Inhibition of cell adhesion in human MCF7 cells assessed as reduction in cell aggregates formation at IC50 incubated for 48 hrs by inverted phase contrast microscopic analysis; type: functional, cell-based
[19] = system: A549; experiment: Induction of cell cycle arrest in human A549 cells assessed as accumulation of cells at G1 phase at IC50 incubated for 24 hrs by PI staining based flow cytometric analysis (reference value: 37.40 +/- 2.40%); type: functional
[20] = system: HCT-116; experiment: Cytotoxicity against human HCT-116 cells assessed as inhibition of cell proliferation incubated for 72 hrs by MTT assay; type: functional, cell-based; conditions: HCT-116, 72 h
[21] = system: Mitochondrial membrane; experiment: Disruption of mitochondrial membrane potential in human MCF7 cells assessed as translocation of cytochrome c to cytoplasm at IC50 incubated for 48 hrs by confocal microscopic analysis; type: cell membranes
[22] = system: A549; experiment: Antitumor activity against human A549 cells xenografted in chicken embryo chorioallantoic membrane assessed as change in nuclear morphology at 1.5 to 4.5 uM by H and E staining based analysis; type: functional, cell-based; conditions: dose 1.5-4.5 µM
[23] = system: Mitochondrial membrane; experiment: Disruption of mitochondrial membrane integrity in human A549 cells assessed as change in mitochondrial size by TEM analysis; type: cell membranes
[24] = system: Mitochondrial membrane; experiment: Disruption of mitochondrial membrane integrity in human MCF7 cells assessed as mitochondrial swelling by TEM analysis; type: cell membranes
[25] = system: Mitochondrial membrane; experiment: Disruption of mitochondrial membrane integrity in human MCF7 cells assessed as change in mitochondrial internal organization by TEM analysis; type: cell membranes
[26] = system: Mitochondrial membrane; experiment: Disruption of mitochondrial membrane integrity in human A549 cells assessed as absence of well-developed cristae by TEM analysis; type: cell membranes
[27] = system: MCF7; experiment: Induction of cell cycle arrest in human MCF7 cells assessed as accumulation of cells at S phase at IC50 incubated for 48 hrs by PI staining based flow cytometric analysis; type: functional
[28] = system: Mitochondrial membrane; experiment: Disruption of mitochondrial membrane potential in human A549 cells assessed as translocation of cytochrome c to cytoplasm at IC50 incubated for 48 hrs by confocal microscopic analysis; type: cell membranes
[29] = system: MCF7; experiment: Induction of cell cycle arrest in human MCF7 cells assessed as accumulation of cells at G2 phase at IC50 incubated for 24 hrs by PI staining based flow cytometric analysis relative to control; type: functional
[30] = system: Mitochondrial membrane; experiment: Disruption of mitochondrial membrane integrity in human MCF7 cells assessed as absence of well-developed cristae by TEM analysis; type: cell membranes
[31] = system: Mitochondrial membrane; experiment: Induction of mitochondrial membrane depolarization in human A549 cells assessed as increase in mitochondrial fission by measuring appearance of circular mitochondria by confocal microscopic analysis; type: cell membranes
[32] = system: Chorioallantoic membrane; experiment: Anti-angiogenesis activity in chicken embryo chorioallantoic membrane assessed as reduction in blood vessel formation by imaging analysis; type: functional, tissue-based; conditions: Gallus gallus, TDE = time-dependent effect
[33] = Cytotoxicity against human MRC5 cells assessed as inhibition of cell proliferation incubated for 72 hrs by MTT assay; type: toxicity, cell-based
[34] = system: Mitochondrial membrane; experiment: Induction of mitochondrial membrane depolarization in human MCF7 cells assessed as increase in mitochondrial fission by measuring appearance of spherical mitochondria by confocal microscopic analysis; type: cell membranes
[35] = system: A549; experiment: Inhibition of colony formation in human A549 cells assessed as reduction in clonogenic capacity incubated for 24 hrs by crystal violet staining based analysis; type: functional, cell-based
[36] = system: Mitochondrial membrane; experiment: Disruption of mitochondrial membrane integrity in human MCF7 cells assessed as presence of bloated mitochondria by TEM analysis; type: cell membranes
[37] = system: Mitochondrial membrane; experiment: Disruption of mitochondrial membrane integrity in human A549 cells assessed as change in mitochondrial internal organization by TEM analysis; type: cell membranes
[38] = system: MCF7; experiment: Antitumor activity against human MCF7 cells xenografted in chicken embryo chorioallantoic membrane assessed as reduction in tumor size; type: functional, cell-based; conditions: dose 1.5-4.5 µM
[39] = system: A549; experiment: Induction of cell cycle arrest in human A549 cells assessed as accumulation of cells at G1 phase at IC50 incubated for 48 hrs by PI staining based flow cytometric analysis (reference value: 53.5 +/- 4.01%); type: functional
[40] = system: MCF7; experiment: Antitumor activity against human MCF7 cells xenografted in chicken embryo chorioallantoic membrane assessed as necrosis at 1.5 to 4.5 uM by H and E staining based analysis; type: functional, cell-based; conditions: dose 1.5-4.5 µM
[41] = system: MCF7; experiment: Cytotoxicity against human MCF7 cells assessed as inhibition of cell proliferation incubated for 72 hrs by MTT assay; type: functional, cell-based; conditions: MCF7, 72 h

SMILES: CC(=S)NC1CCc2[nH]c3ccc(Br)cc3c2C1 (stereo unspecified)
- Activity [1]: Active
- Activity [2]: 11.98%
- Activity [3]: Dose-Dependent Effect
- Activity [4]: 47.28%
- Activity [5]: Active
- Activity [6]: Active
- Activity [7]: Active
- Activity [8]: Active
- Activity [9]: 25.65%
- Activity [10]: 27.15%
- IC50 [11]: 4.54 µM
- Activity [12]: Active
- Activity [13]: 20.75%
- Activity [14]: Active
- Activity [15]: 10.8%
- Activity [16]: Active
- Activity [17]: Active
- inhibition [18]: Active
- Activity [19]: 31.6%
- IC50 [20]: 40 µM
- Activity [21]: Active
- Activity [22]: Active
- Activity [23]: Active
- Activity [24]: Active
- Activity [25]: Active
- Activity [26]: Active
- Activity [27]: Active
- Activity [28]: Active
- Activity [29]: 25.95%
- Activity [30]: Active
- Activity [31]: Active
- Activity [32]: Tde
- IC50 at 72 h [33]: > 50 µM
- Activity [34]: Active
- inhibition [35]: Dose-Dependent Effect
- Activity [36]: Active
- Activity [37]: Active
- Activity [38]: Dose-Dependent Effect
- Activity [39]: 46.15%
- Activity [40]: Active
- IC50 [41]: 3.81 µM
